Patent US20200024278A1, “COMPOSITION COMPRISING ANTIBIOTIC COMPOUND AND AN HETEROCYCLIC COMPOUND AND THEIR USE IN PREVENTING OR TREATING BACTERIAL INFECTIONS” (MUTABILIS, priority 2016, published 2020)

How the values were obtained:
Assay in all cases: MIC, broth microdilution (CLSI), substance alone or ATB combined with compound at 4 or 8 μg/mL
ECO 190317 = type: cell-based, E. coli; details: ECO 190317
Procedure, shortened: (§1)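 Growth inhibition endpoint, read visually after 16-20 h at 35° C in ambient air. Cation-adjusted Mueller-Hinton broth, inoculum 5·10^5 CFU/mL, CLSI M7-A7 protocol.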

ECO UFR39 = type: cell-based, E. coli; details: ECO UFR39
Procedure, shortened: as §1

KPN 6299 = type: cell-based, K. pneumoniae
Procedure, shortened: as §1

KPN BAA-1898 = type: cell-based, K. pneumoniae; details: KPN BAA-1898
Procedure, shortened: as §1

KPN UFR42 = type: cell-based, K. pneumoniae; details: KPN UFR42
Procedure, shortened: as §1

ECL P99 = type: cell-based, E. cloacae; details: ECL P99
Procedure, shortened: as §1

## C[C@@H](O)[C@H]1C(=O)N2C(C(=O)O)=C(SCCN=CN)C[C@H]12 [IMI]
ECO 190317; antibiotic alone
  MIC ATB alone: 0.125 µg/mL
ECO 190317; with Example 1 @8 μg/ml
  MIC ATB combined with Example 1 @8 μg/ml: <0.031 µg/mL
ECO 190317; with Example 1 at 8 μg/ml
  MIC ATB combined with Example 1 @8 μg/ml: <0.031 µg/mL
ECO 190317; with Example 7 at 8 μg/ml
  MIC ATB combined with Example 7 @8 μgml: <0.031 µg/mL
ECO 190317; with Example 9 @4 μg/ml
  MIC ATB combined with Example 9 @4 μg/ml: <0.031 µg/mL
ECO 190317; with Example 9 at 4 μg/ml
  MIC ATB combined with Example 9 @4 μg/ml: <0.031 µg/mL
ECO 190317; with Example 11 at 8 μg/ml
  MIC ATB combined with Example 11 @8 μg/ml: <0.031 µg/mL
ECO 190317; with Example 12 at 8 μg/ml
  MIC ATB combined with Example 12 @8 μg/ml: <0.031 µg/mL
ECO 190317; with Example 13 at 8 μg/ml
  MIC ATB combined with Example 13 @8 μg/ml: <0.031 µg/mL
ECO 190317; with Example 14 at 8 μg/ml
  MIC ATB combined with Example 14 @8 μg/ml: <0.031 µg/mL
ECO 190317; with Example 15 at 4 μg/ml
  MIC ATB combined with Example 15 @4 μgml: <0.031 µg/mL
ECO 190317; with Example 16 at 4 μg/ml
  MIC ATB combined with Example 16 @4 μg/ml: <0.031 µg/mL
ECO UFR39; antibiotic alone
  MIC ATB alone: 16 µg/mL
ECO UFR39; with Example 1 @8 μg/ml
  MIC ATB combined with Example 1 @8 μg/ml: <0.031 µg/mL
ECO UFR39; with Example 1 at 8 μg/ml
  MIC ATB combined with Example 1 @8 μg/ml: <0.031 µg/mL
ECO UFR39; with Example 7 at 8 μg/ml
  MIC ATB combined with Example 7 @8 μgml: <0.031 µg/mL
ECO UFR39; with Example 9 @4 μg/ml
  MIC ATB combined with Example 9 @4 μg/ml: <0.031 µg/mL
ECO UFR39; with Example 9 at 4 μg/ml
  MIC ATB combined with Example 9 @4 μg/ml: <0.031 µg/mL
ECO UFR39; with Example 11 at 8 μg/ml
  MIC ATB combined with Example 11 @8 μg/ml: <0.031 µg/mL
ECO UFR39; with Example 12 at 8 μg/ml
  MIC ATB combined with Example 12 @8 μg/ml: <0.031 µg/mL
ECO UFR39; with Example 13 at 8 μg/ml
  MIC ATB combined with Example 13 @8 μg/ml: <0.031 µg/mL
ECO UFR39; with Example 14 at 8 μg/ml
  MIC ATB combined with Example 14 @8 μg/ml: <0.031 µg/mL
ECO UFR39; with Example 15 at 4 μg/ml
  MIC ATB combined with Example 15 @4 μgml: <0.031 µg/mL
ECO UFR39; with Example 16 at 4 μg/ml
  MIC ATB combined with Example 16 @4 μg/ml: <0.031 µg/mL
KPN 6299; antibiotic alone
  MIC ATB alone: 0.25 µg/mL
KPN 6299; with Example 1 @8 μg/ml
  MIC ATB combined with Example 1 @8 μg/ml: 1 µg/mL
KPN 6299; with Example 1 at 8 μg/ml
  MIC ATB combined with Example 1 @8 μg/ml: 1 µg/mL
KPN 6299; with Example 7 at 8 μg/ml
  MIC ATB combined with Example 7 @8 μgml: 4 µg/mL
KPN 6299; with Example 9 @4 μg/ml
  MIC ATB combined with Example 9 @4 μg/ml: <0.031 µg/mL
KPN 6299; with Example 9 at 4 μg/ml
  MIC ATB combined with Example 9 @4 μg/ml: <0.031 µg/mL
KPN 6299; with Example 11 at 8 μg/ml
  MIC ATB combined with Example 11 @8 μg/ml: <0.031 µg/mL
KPN 6299; with Example 12 at 8 μg/ml
  MIC ATB combined with Example 12 @8 μg/ml: <0.031 µg/mL
KPN 6299; with Example 13 at 8 μg/ml
  MIC ATB combined with Example 13 @8 μg/ml: 1 µg/mL
KPN 6299; with Example 14 at 8 μg/ml
  MIC ATB combined with Example 14 @8 μg/ml: <0.031 µg/mL
KPN 6299; with Example 15 at 4 μg/ml
  MIC ATB combined with Example 15 @4 μgml: <0.031 µg/mL
KPN 6299; with Example 16 at 4 μg/ml
  MIC ATB combined with Example 16 @4 μg/ml: <0.031 µg/mL
KPN BAA-1898; antibiotic alone
  MIC ATB alone: 64 µg/mL
KPN BAA-1898; with Example 1 @8 μg/ml
  MIC ATB combined with Example 1 @8 μg/ml: 2 µg/mL
KPN BAA-1898; with Example 1 at 8 μg/ml
  MIC ATB combined with Example 1 @8 μg/ml: 2 µg/mL
KPN BAA-1898; with Example 7 at 8 μg/ml
  MIC ATB combined with Example 7 @8 μgml: 16 µg/mL
KPN BAA-1898; with Example 9 @4 μg/ml
  MIC ATB combined with Example 9 @4 μg/ml: <0.031 µg/mL
KPN BAA-1898; with Example 9 at 4 μg/ml
  MIC ATB combined with Example 9 @4 μg/ml: <0.031 µg/mL
KPN BAA-1898; with Example 11 at 8 μg/ml
  MIC ATB combined with Example 11 @8 μg/ml: <0.031 µg/mL
KPN BAA-1898; with Example 12 at 8 μg/ml
  MIC ATB combined with Example 12 @8 μg/ml: <0.031 µg/mL
KPN BAA-1898; with Example 13 at 8 μg/ml
  MIC ATB combined with Example 13 @8 μg/ml: 0.5 µg/mL
KPN BAA-1898; with Example 14 at 8 μg/ml
  MIC ATB combined with Example 14 @8 μg/ml: <0.031 µg/mL
KPN BAA-1898; with Example 15 at 4 μg/ml
  MIC ATB combined with Example 15 @4 μgml: <0.031 µg/mL
KPN BAA-1898; with Example 16 at 4 μg/ml
  MIC ATB combined with Example 16 @4 μg/ml: <0.031 µg/mL
KPN UFR42; antibiotic alone
  MIC ATB alone: 32 µg/mL
KPN UFR42; with Example 1 @8 μg/ml
  MIC ATB combined with Example 1 @8 μg/ml: >32 µg/mL
KPN UFR42; with Example 1 at 8 μg/ml
  MIC ATB combined with Example 1 @8 μg/ml: >32 µg/mL
KPN UFR42; with Example 7 at 8 μg/ml
  MIC ATB combined with Example 7 @8 μgml: >32 µg/mL
KPN UFR42; with Example 9 @4 μg/ml
  MIC ATB combined with Example 9 @4 μg/ml: 32 µg/mL
KPN UFR42; with Example 9 at 4 μg/ml
  MIC ATB combined with Example 9 @4 μg/ml: 32 µg/mL
KPN UFR42; with Example 11 at 8 μg/ml
  MIC ATB combined with Example 11 @8 μg/ml: <0.031 µg/mL
KPN UFR42; with Example 12 at 8 μg/ml
  MIC ATB combined with Example 12 @8 μg/ml: <0.031 µg/mL
KPN UFR42; with Example 13 at 8 μg/ml
  MIC ATB combined with Example 13 @8 μg/ml: >32 µg/mL
KPN UFR42; with Example 14 at 8 μg/ml
  MIC ATB combined with Example 14 @8 μg/ml: <0.031 µg/mL
KPN UFR42; with Example 15 at 4 μg/ml
  MIC ATB combined with Example 15 @4 μgml: <0.031 µg/mL
KPN UFR42; with Example 16 at 4 μg/ml
  MIC ATB combined with Example 16 @4 μg/ml: <0.031 µg/mL
ECL P99; antibiotic alone
  MIC ATB alone: 0.25 µg/mL
ECL P99; with Example 1 @8 μg/ml
  MIC ATB combined with Example 1 @8 μg/ml: <0.031 µg/mL
ECL P99; with Example 1 at 8 μg/ml
  MIC ATB combined with Example 1 @8 μg/ml: <0.031 µg/mL
ECL P99; with Example 7 at 8 μg/ml
  MIC ATB combined with Example 7 @8 μgml: 1 µg/mL
ECL P99; with Example 9 @4 μg/ml
  MIC ATB combined with Example 9 @4 μg/ml: <0.031 µg/mL
ECL P99; with Example 9 at 4 μg/ml
  MIC ATB combined with Example 9 @4 μg/ml: <0.031 µg/mL
